Results as given in patent publication US20210283053A1, “LIQUID FORMULATIONS OF GLUCAGON ANALOGUES” (Zealand Pharma A/S, priority 2020, published 2021).

System: RYGB-operated individuals with confirmed postprandial hypoglycaemia
Test: Crossover study with liquid mixed meal test, postprandial hypoglycaemia after Roux-en-Y gastric bypass
Type: in vivo, human
Settings: for time spent in level 2 hypoglycaemia (<3.1 mmol/l): n=5, placebo 31.0±5; for nadir PG: placebo 3.0±0.2; for time spent in hypoglycaemia (<3.9 mmol/l): placebo 62.0±8; for PG incremental AUC (iAUC70-240 min) after drug administration: placebo 752±19, p<0.0001
From the text: Postprandial hypoglycaemia is a frequent and debilitating complication following Roux-en-Y gastric bypass (RYGB), and no effective treatment exists. In a proof-of-concept study, we investigated the effects of dasiglucagon, a novel, stable glucagon analogue, on postprandial hypoglycaemia after RYGB. The primary aim of the present study was to examine the effects of two doses of dasiglucagon on the postprandial nadir plasma glucose concentration (PG) and time spent in hypoglycaemia (<3.9 mmol/l) in RYGB-operated individuals with confirmed postprandial hypoglycaemia.
Ten RYGB-operated individuals (two males, eight females; BMI 34.6 (21.8-39.0) kg/m^2; age 46 (29-67) years; HbA1c 32 (29-42) mmol/mol; time since operation 9.3 (6-11.5) years; weight loss since operation 53.9 (25.1-92.0) kg)) with confirmed symptomatic postprandial hypoglycaemia (PG<3.5 mmol/l verified by a 6-day continuous glucose monitoring) completed a double-blinded, randomised, crossover study comprising three separate treatment days, each including a standardised liquid mixed meal test (25 kJ per kg body mass; 50 E % carbohydrates, 35 E % fat and 15 E % protein). A subcutaneous injection of either placebo, 80 or 200 μg dasiglucagon (D80μg and D200μg) was administered after the postprandial PG peak, approximately 10 minutes before the projected time point where the PG returned to fasting levels using a subject-specific linear regression model. Blood sampling and assessment of hypoglycaemic symptoms, by the Edinburgh Hypoglycaemia Symptom Scale, were performed at fixed time intervals. Data were analysed using linear mixed models and Tukey's corrections model for multiple comparisons.

Hy-HSQGTFTSDYSKYLD-Aib-ARAEEFVKWLEST-OH [Compound 1, glucagon analogue (dasiglucagon)]
time spent in level 2 hypoglycaemia (<3.1 mmol/l) (80 μg subcutaneous, p>0.05): 7 ± 5 min
nadir PG (80 μg subcutaneous, p=0.002): 3.9 ± 0.3 mmol/L
time spent in hypoglycaemia (<3.9 mmol/l) (80 μg subcutaneous, p=0.05): 27.5 ± 12 min
PG incremental AUC (iAUC70-240 min) after drug administration (80 μg subcutaneous): 917 ± 22 mmol·min/L
participants who experienced level 2 hypoglycaemia (<3.1 mmol/l) (200 μg subcutaneous, five participants after placebo): none
time spent in level 2 hypoglycaemia (<3.1 mmol/l) (200 μg subcutaneous, p=0.01): 0.0 ± 0 min
nadir PG (200 μg subcutaneous, p=0.0002): 4.5 ± 0.2 mmol/L
time spent in hypoglycaemia (<3.9 mmol/l) (200 μg subcutaneous, p=0.003): 14.0 ± 9 min
PG incremental AUC (iAUC70-240 min) after drug administration (200 μg subcutaneous): 992 ± 28 mmol·min/L
changes in hypoglycaemic symptoms (Edinburgh Hypoglycaemia Symptom Scale) (between the three study days (placebo, 80 and 200 μg)): no significant changes
